In the NIST ThermoML archive (doi:10.1016/j.jct.2011.02.008):

Test: xn = mol fraction of the nth substance listed
Details: 278.15 K, Liquid, Vibrating tube method

COC(=O)c1ccccc1 [methyl benzoate] + CCCCCCO
mass density [kg/m3]
Details | x1 = 0.1004 | x1 = 0.2007 | x1 = 0.3007 | x1 = 0.4013 | x1 = 0.5005 | x1 = 0.6009 | x1 = 0.7 | x1 = 0.8008 | x1 = 0.9009
100 kPa | 856.6 | 883.8 | 911.4 | 938.8 | 966 | 993.4 | 1020.3 | 1047.7 | 1075.1
1000 kPa | 857.1 | 884.4 | 911.9 | 939.4 | 966.5 | 993.9 | 1020.8 | 1048.2 | 1075.5
5000 kPa | 859.7 | 886.9 | 914.4 | 941.8 | 968.9 | 996.3 | 1023.2 | 1050.6 | 1077.9
10000 kPa | 862.7 | 889.9 | 917.3 | 944.8 | 971.9 | 999.2 | 1026 | 1053.4 | 1080.7
15000 kPa | 865.6 | 892.8 | 920.3 | 947.6 | 974.7 | 1002 | 1028.9 | 1056.3 | 1083.5
20000 kPa | 868.5 | 895.6 | 923.1 | 950.4 | 977.5 | 1004.7 | 1031.6 | 1059 | 1086.2
25000 kPa | 871.2 | 898.3 | 925.8 | 953.1 | 980.2 | 1007.4 | 1034.2 | 1061.6 | 1088.7
30000 kPa | 873.8 | 901 | 928.4 | 955.8 | 982.8 | 1010 | 1036.8 | – | –
